In patent US11357782B2, “Treprostinil administration by inhalation” (priority 2006, dated 2022):

Columns and labels:
[1] = system: patients with pre-existing gas exchange problems; assay: Ventilation-perfusion matching by multiple inert gas elimination technique (MIGET); conditions: during NO-inhalation (20 ppm); mean±95% confidence interval; n=5
Description: The impact of SMI-TRE on ventilation-perfusion matching was assessed in five patients (30 μg TRE, n=2; 45 μg TRE, n=1; 60 μg TRE, n=2) with pre-existing gas exchange problems by use of the multiple inert gas elimination technique (MIGET), see e.g. Wagner PD, Saltzman HA, West JB. Measurement of continuous distributions of ventilation-perfusion ratios: theory. J Appl Physiol. 1974; 36:588-99; Ghofrani HA, Wiedemann R, Rose F, Schermuly RT, Olschewski H, Weissmann N et al. Sildenafil for treatment of lung fibrosis and pulmonary hypertension: a randomised controlled trial. Lancet. 2002; 360:895-900, both incorporated herein in their entirety.
The inhalation of a highly concentrated aerosol can be in theory prone to disturbances of gas exchange because the deposition of even small amounts of aerosol may deliver high doses locally and thereby antagonize the hypoxic pulmonary vasoconstriction in poorly ventilated areas. This would then lead to increased shunt flow or increase of low ventilation/perfusion (V/Q) areas. This question was addressed in five patients with the multiple inert gas elimination technique (MIGET), the gold-standard for intrapulmonary V/Q ratio determination. The MIGET patients were selected for pre-existing gas exchange limitations. […] Etiologies were iPAH (n=1), CTEPH (n=3), pulmonary fibrosis (n=1).

[2] = system: patients with moderate to severe precapillary pulmonary hypertension; assay: Study i) randomized crossover study of inhaled treprostinil vs inhaled iloprost, right heart catheter; assay type: in vivo, human
Description: All inhalations were performed with the […]® ultrasonic nebulizer ([…], Germany). Study i) was a randomized, open-label, single-blind crossover study. […] Patient characteristics and hemodynamic as well as gas exchange parameters are outlined in Table 3. Each patient inhaled both iloprost and treprostinil on the same day during right heart catheter investigation; the drugs were administered consecutively with a one hour interval between the drug applications. One half of the study patients initially inhaled treprostinil and then inhaled iloprost (n=22), while the other half initially inhaled iloprost and then inhaled treprostinil (n=22). Patients were randomized to one of the two groups and blinded as to the study drugs. Drug effects were monitored for 60 minutes after each inhalation.

Structure (SMILES)	shunt flow [1] [%]	area under the curve (AUC) of PVR decrease ([2]; 7.5 μg inhaled in 6 minutes, start of inhalation until 60 min, mean±95% confidence interval) [%]	gas exchange ([2]; after inhalation)	systemic arterial pressure (SAP) ([2]; after inhalation)	side effects (transient flush, headache) ([2]; iloprost 7.5 μg, treprostinil 7.5-15 μg)	maximum effect on PVR ([2]; iloprost vs treprostinil, pooled)	time to maximum effect on PVR after inhalation ([2]; pooled n=44, mean±SEM, p<0.0001) [min]
[N]=O [NO, nitric oxide]	5.4±3.0						
CC#CCC(C)[C@H](O)/C=C/[C@@H]1[C@H]2C/C(=C/CCCC(=O)O)C[C@H]2C[C@H]1O (stereo partly shown) [iloprost]		7.7±3.7	did not affect gas exchange	transient decrease	occasionally observed mild side effects	comparable	8 ± 1
